In article PMC7230232, “Secondary Metabolites from the Culture of the Marine-derived Fungus Paradendryphiella salina PC 362H and Evaluation of the Anticancer Activity of Its Metabolite Hyalodendrin” (Marine Drugs, 2020):
“And” between values parts separate entries of the source, which are not always exact repeats. Equal entries are not always repeated. Where two headings read alike, the source gives them in different places.

What was measured:
3T3-F442A cells = assay: MTT cell viability assay, 3T3-F442A pre-adipocytes; type: cell-based, murine; details: pure compounds, MTT, read-out: IC50 3T3-F442A
Procedure: (§1) Cellular viability was determined by the MTT (methylthiazolyldiphenyl-tetrazolium bromide) assay. Briefly, cells were exposed to the indicated concentrations of crude extracts or compounds 1–4 for five doubling times and then incubated for 3 h at 37 °C with MTT. Formazan crystals were then dissolved in DMSO and optical density measured at 570 nm in a microplate reader. The half-maximal inhibitory concentration (IC50) was determined. Values given for crude extracts are averages of at least two experiments done in duplicate. IC50 values calculated for the four isolated compounds and the commercially available 4-hydroxy-tamoxifen (Sigma-Aldrich) are averages of at least three experiments done in duplicate.

MCF7-Sh-WISP2 cells = assay: MTT cell viability assay, MCF7-Sh-WISP2; type: cell-based, human; details: pure compounds, MTT, read-out: IC50 MCF7-Sh-WISP2
Procedure: as §1

MCF7 cells = assay: MTT cell viability assay, MCF7; type: cell-based, human; details: MTT, read-out: IC50 MCF7
Procedure: as §1

[1] = test system: Plasmodium falciparum (chloroquine-resistant FcB1/Colombia strain); assay: Anti-plasmodial assay ([3H]hypoxanthine incorporation); type: cell-based; details: data not shown, read-out: IC50 against Plasmodium falciparum
Procedure: Supplementary materials and methods.
The fungus was isolated in January 2012 as an endophyte from the holdfast of P. caniculata harvested in Roscoff (Britany, France). Both morphological assessment and internal transcribed spacer (ITS) sequencing were performed to identify it as Paradendryphiella salina. It is now maintained at the MCAM culture collection (Muséum National d’Histoire Naturelle, Paris) under the number PC 362H.
The anti-plasmodial activity was evaluated against the chloroquine-resistant FcB1/Colombia strain of Plasmodium falciparum. The assay was performed using the method of Desjardins (Desjardins et al., 1979). Extracts and pure compounds were diluted in Dimethyl Sulfoxyde (DMSO) and added to the culture medium (final concentration: 20 µg/mL) in 96-well microplates. Asynchronous parasite cultures were then added (1 % parasitemia and 1 % final hematocrite), and plates were maintained for 24 hours at 37 °C in a candle jar. […] After a cycle of freezing and thawing, the cells were harvested from each well onto glass fiber filters, and the dried filters were counted in a scintillation counter. The growth inhibition for each well was determined by comparison of the radioactivity incorporated into the treated culture with that in the control culture maintained on the same plate. […]

[2] = Homo sapiens, MCF7, pure compounds

Compound: 4-hydroxy-tamoxifen [Hydroxi Tamoxifen, reference compound]
- IC50 (3T3-F442A cells): 14.5 µM
- IC50 (MCF7-Sh-WISP2 cells): 11.6 µM
- IC50 (MCF7 cells; pure compounds): 8.8 µM

Compound: C[C@H](C(=O)O)[C@H]1CC[C@@]2(C)C3=C(C[C@@H](O)[C@]12C)[C@@]1(C)CC[C@H](O)C(C)(C)C1CC3 (relative stereo) [Compound 1, Dendryphiellide A]
- IC50 (3T3-F442A cells; Mus musculus): > 25 µg/mL
- IC50 (3T3-F442A cells): > 60 µM
- IC50 [1]: 65 ± 4.2 µM
- IC50 (MCF7-Sh-WISP2 cells; Homo sapiens): > 25 µg/mL
- IC50 (MCF7-Sh-WISP2 cells): > 60 µM
- IC50 (MCF7 cells; [2]): 20 µg/mL

Compound: COC(=O)CNC(=O)CC[C@@H](C)[C@H]1CC[C@H]2[C@H]3C(C[C@H](O)[C@]12C)[C@@]1(C)CC[C@@H](O)C[C@H]1C[C@H]3O (stereo partly shown) [Compound 2, glycocholic acid methyl ester]
- IC50 (3T3-F442A cells; Mus musculus): > 25 µg/mL and > 50 µM
- IC50 [1]: 20.5 ± 3.5 µM
- IC50 (MCF7-Sh-WISP2 cells; Homo sapiens): > 25 µg/mL and > 50 µM
- IC50 (MCF7 cells; [2]): > 25 µg/mL and > 50 µM

Compound: CS[C@]1(CO)C(=O)N(C)[C@](Cc2ccccc2)(SC)C(=O)N1C [Compound 4, (3R, 6R) bisdethiodi(methylthio)hyalodendrin]
- IC50 (3T3-F442A cells; Mus musculus): 92 µg/mL and 26 µM
- IC50 (MCF7-Sh-WISP2 cells; Homo sapiens): 24 µg/mL and 68 µM
- IC50 (MCF7 cells; [2]): 15 µg/mL and 42 µM
